Source: patent publication US9637487B2, “Purinone compounds as kinase inhibitors” (Pharmacyclics LLC, priority 2013, dated 2017)

Each compound was assayed against Btk (Homo sapiens (Human), UniProt Q06187) (assay: Btk in vitro inhibitory activity (one of Method A TR-FRET, Method B mobility shift, Method C radiometric filter binding)). Conditions: determined using one of the methods outlined in Example 36a, 36b and 36c.
Assay type: biochemical
Method: Btk kinase activity is determined using a time-resolved fluorescence resonance energy transfer (TR-FRET) methodology. Measurements are performed in a reaction volume of 50 μL using 96-well assay plates. […] The reaction is quenched by the addition of 1.2 equivalents of EDTA (relative to divalent cation) in 25 μL of 1× Lance buffer (Perkin-Elmer). […] The TR-FRET signal is measured on a multimode plate reader with an excitation wavelength (λEx) of 330 nm and detection wavelengths (λEm) of 615 and 665 nm. Activity is determined by the ratio of the fluorescence at 665 nm to that at 615 nm. For each compound, enzyme activity is measured at various concentrations of compound. Negative control reactions are performed in the absence of inhibitor in replicates of six, and two no-enzyme controls are used to determine baseline fluorescence levels Inhibition constants, Ki(app), ware obtained using the program BatchKi (Kuzmic et al. (2000), Anal. Biochem. 286:45-50). IC50s are obtained according to the equation: IC50={Ki(app)/(1+[ATP]/Km^ATP)}+[E]total/2;
Kinase activity is measured in vitro using electrophoretic mobility shift assay. The kinase reactions are assembled in a total volume of 25 μL in 384 well plates. […] The reaction is incubated for one hour and is quenched by the addition of 45 μL of termination buffer (100 mM HEPES, pH7.5, 0.01% Triton X-100, 30 mM EDTA). The terminated reactions are analyzed using 12 channel LabChip® 3000 microfluidic detection instrument (Caliper Life Sciences). […] Change in the relative fluorescence intensity of the substrate and product peaks is the parameter measured, reflecting enzyme activity. In the presence of an inhibitor, the ratio between product and substrate is altered: the signal of the product decreases, while the signal of the substrate increases.
Activity in each sample is determined as the product to sum ratio (PSR):P/(S+P), where P is the peak height of the product peptide and S is the peak height of the substrate peptide. For each compound, enzyme activity is measured at various concentrations (12 concentrations of compound spaced by 3× dilution intervals). Negative control samples (0%-inhibition in the absence of inhibitor) and positive control samples (100%-inhibition, in the presence of 20 mM EDTA) are assembled in replicates of four and are used to calculate %-inhibition values for each inhibitor at each concentration. Percent inhibition (Pinh) is determined using following equation: Pinh=(PSR0%−PSRinh)/(PSR0%−PSR100%)*100, where PSRinh is the product sum ratio in the presence of inhibitor, PSR0% is the average product sum ration in the absence of inhibitor and PSR100% is the average product sum ratio in 100%-inhibition control samples;
The IC50 values of inhibitors are determined by 4 parameter sigmoidal dose-response model fitting of the inhibition curves (Pinh versus inhibitor concentration) using XLfit 4 software.
IC50 values and curve fits were obtained using Prism (GraphPad Software).
The degree of Btk inhibition was determined using one of the methods outlined in Example 36a, 36b and 36c.

Chain of Btk (Q06187 whole entry): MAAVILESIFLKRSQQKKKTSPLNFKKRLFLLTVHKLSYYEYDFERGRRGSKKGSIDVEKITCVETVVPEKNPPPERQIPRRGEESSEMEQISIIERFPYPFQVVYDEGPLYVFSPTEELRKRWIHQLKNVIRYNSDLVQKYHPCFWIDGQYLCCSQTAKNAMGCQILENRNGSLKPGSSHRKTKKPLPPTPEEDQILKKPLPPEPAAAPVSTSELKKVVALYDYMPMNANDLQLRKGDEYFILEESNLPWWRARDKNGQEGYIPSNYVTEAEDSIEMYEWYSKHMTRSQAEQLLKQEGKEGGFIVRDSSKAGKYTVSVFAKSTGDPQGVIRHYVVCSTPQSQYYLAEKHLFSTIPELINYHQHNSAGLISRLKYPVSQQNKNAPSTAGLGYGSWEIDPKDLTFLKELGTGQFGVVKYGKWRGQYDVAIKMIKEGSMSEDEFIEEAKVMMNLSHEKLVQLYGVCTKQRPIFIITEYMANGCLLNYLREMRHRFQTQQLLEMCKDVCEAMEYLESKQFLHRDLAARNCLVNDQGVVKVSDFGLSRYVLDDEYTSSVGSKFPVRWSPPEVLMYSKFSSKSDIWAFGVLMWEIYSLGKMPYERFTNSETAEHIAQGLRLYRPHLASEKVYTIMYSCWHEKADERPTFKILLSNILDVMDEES

SMILES | IC50
CN(C)C/C=C/C(=O)N(C)c1cccc(-n2c(=O)n(-c3ccc(C(=O)Nc4ccccn4)cc3)c3c(N)ncnc32)c1 [Compound 6, (E)-4-(6-amino-9-(3-(4-(dimethylamino)-N-methylbut-2-enamido)phenyl)-8-oxo-8,9-dihydro-7H-purin-7-yl)-N-(pyridin-2-yl)benzamide] | < 100 nM
Cc1ccnc(NC(=O)c2ccc(-n3c(=O)n(-c4cccc(N(C)C(=O)/C=C/CN(C)C)c4)c4ncnc(N)c43)cc2)c1 [Compound 7, (E)-4-(6-amino-9-(3-(4-(dimethylamino)-N-methylbut-2-enamido)phenyl)-8-oxo-8,9-dihydro-7H-purin-7-yl)-N-(4-methylpyridin-2-yl)benzamide] | < 100 nM
CCc1ccnc(NC(=O)c2ccc(-n3c(=O)n(-c4cccc(N(C)C(=O)/C=C/CN(C)C)c4)c4ncnc(N)c43)cc2)c1 [Compound 8, (E)-4-(6-amino-9-(3-(4-(dimethylamino)-N-methylbut-2-enamido)phenyl)-8-oxo-8,9-dihydro-7H-purin-7-yl)-N-(4-ethylpyridin-2-yl)benzamide] | < 100 nM
CCCc1ccnc(NC(=O)c2ccc(-n3c(=O)n(-c4cccc(N(C)C(=O)/C=C/CN(C)C)c4)c4ncnc(N)c43)cc2)c1 [Compound 9, (E)-4-(6-amino-9-(3-(4-(dimethylamino)-N-methylbut-2-enamido)phenyl)-8-oxo-8,9-dihydro-7H-purin-7-yl)-N-(4-propylpyridin-2-yl)benzamide] | < 100 nM
CN(C)C/C=C/C(=O)N(C)c1cccc(-n2c(=O)n(-c3ccc(C(=O)Nc4cc(C(F)(F)F)ccn4)cc3)c3c(N)ncnc32)c1 [Compound 10, (E)-4-(6-amino-9-(3-(4-(dimethylamino)-N-methylbut-2-enamido)phenyl)-8-oxo-8,9-dihydro-7H-purin-7-yl)-N-(4-(trifluoromethyl)pyridin-2-yl)benzamide] | < 100 nM
CN(C)C/C=C/C(=O)N(C)c1cccc(-n2c(=O)n(-c3ccc(C(=O)Nc4cccc(C(F)(F)F)c4)cc3)c3c(N)ncnc32)c1 [Compound 11, (E)-4-(6-amino-9-(3-(4-(dimethylamino)-N-methylbut-2-enamido)phenyl)-8-oxo-8,9-dihydro-7H-purin-7-yl)-N-(3-(trifluoromethyl)phenyl)benzamide] | < 100 nM
CN(C)C/C=C/C(=O)N(C)c1cccc(-n2c(=O)n(-c3ccc(C(=O)Nc4cccc(-c5ncccn5)c4)cc3)c3c(N)ncnc32)c1 [Compound 12, (E)-4-(6-amino-9-(3-(4-(dimethylamino)-N-methylbut-2-enamido)phenyl)-8-oxo-8,9-dihydro-7H-purin-7-yl)-N-(3-(pyrimidin-2-yl)phenyl)benzamide] | < 100 nM
CN(C)C/C=C/C(=O)N(C)c1cccc(-n2c(=O)n(-c3ccc(C(=O)Nc4ncccc4F)cc3)c3c(N)ncnc32)c1 [Compound 13, (E)-4-(6-amino-9-(3-(4-(dimethylamino)-N-methylbut-2-enamido)phenyl)-8-oxo-8,9-dihydro-7H-purin-7-yl)-N-(3-fluoropyridin-2-yl)benzamide] | 100 to 1000 nM
CN(C)C/C=C/C(=O)N(C)c1cccc(-n2c(=O)n(-c3ccc(C(=O)Nc4ccc(F)cn4)cc3)c3c(N)ncnc32)c1 [Compound 14, (E)-4-(6-amino-9-(3-(4-(dimethylamino)-N-methylbut-2-enamido)phenyl)-8-oxo-8,9-dihydro-7H-purin-7-yl)-N-(5-fluoropyridin-2-yl)benzamide] | < 100 nM
CN(C)C/C=C/C(=O)N(C)c1cccc(-n2c(=O)n(-c3ccc(C(=O)Nc4cncc(F)c4)cc3)c3c(N)ncnc32)c1 [Compound 15, (E)-4-(6-amino-9-(3-(4-(dimethylamino)-N-methylbut-2-enamido)phenyl)-8-oxo-8,9-dihydro-7H-purin-7-yl)-N-(5-fluoropyridin-3-yl)benzamide] | 100 to 1000 nM
Cc1cc(NC(=O)c2ccc(-n3c(=O)n(-c4cccc(N(C)C(=O)/C=C/CN(C)C)c4)c4ncnc(N)c43)cc2)ncc1F [Compound 16, (E)-4-(6-amino-9-(3-(4-(dimethylamino)-N-methylbut-2-enamido)phenyl)-8-oxo-8,9-dihydro-7H-purin-7-yl)-N-(5-fluoro-4-methylpyridin-2-yl)benzamide] | < 100 nM

Continued, values first:

IC50 | SMILES
< 100 nM | CN(C)C/C=C/C(=O)N(C)c1cccc(-n2c(=O)n(-c3ccc(C(=O)Nc4ccc(Cl)cn4)cc3)c3c(N)ncnc32)c1 [Compound 17, (E)-4-(6-amino-9-(3-(4-(dimethylamino)-N-methylbut-2-enamido)phenyl)-8-oxo-8,9-dihydro-7H-purin-7-yl)-N-(5-chloropyridin-2-yl)benzamide]
< 100 nM | CN(C)C/C=C/C(=O)N(C)c1cccc(-n2c(=O)n(-c3ccc(C(=O)Nc4nccs4)cc3)c3c(N)ncnc32)c1 [Compound 18, (E)-4-(6-amino-9-(3-(4-(dimethylamino)-N-methylbut-2-enamido)phenyl)-8-oxo-8,9-dihydro-7H-purin-7-yl)-N-(thiazol-2-yl)benzamide]
< 100 nM | Cc1cnc(NC(=O)c2ccc(-n3c(=O)n(-c4cccc(N(C)C(=O)/C=C/CN(C)C)c4)c4ncnc(N)c43)cc2)s1 [Compound 19, (E)-4-(6-amino-9-(3-(4-(dimethylamino)-N-methylbut-2-enamido)phenyl)-8-oxo-8,9-dihydro-7H-purin-7-yl)-N-(5-methylthiazol-2-yl)benzamide]
< 100 nM | Cc1csc(NC(=O)c2ccc(-n3c(=O)n(-c4cccc(N(C)C(=O)/C=C/CN(C)C)c4)c4ncnc(N)c43)cc2)n1 [Compound 20, (E)-4-(6-amino-9-(3-(4-(dimethylamino)-N-methylbut-2-enamido)phenyl)-8-oxo-8,9-dihydro-7H-purin-7-yl)-N-(4-methylthiazol-2-yl)benzamide]
< 100 nM | Cc1nc(NC(=O)c2ccc(-n3c(=O)n(-c4cccc(N(C)C(=O)/C=C/CN(C)C)c4)c4ncnc(N)c43)cc2)sc1C [Compound 21, (E)-4-(6-amino-9-(3-(4-(dimethylamino)-N-methylbut-2-enamido)phenyl)-8-oxo-8,9-dihydro-7H-purin-7-yl)-N-(4,5-dimethylthiazol-2-yl)benzamide]
< 100 nM | CN(C)C/C=C/C(=O)N(C)c1cccc(-n2c(=O)n(-c3ccc(C(=O)Nc4nc5c(s4)CCCC5)cc3)c3c(N)ncnc32)c1 [Compound 22, (E)-4-(6-amino-9-(3-(4-(dimethylamino)-N-methylbut-2-enamido)phenyl)-8-oxo-8,9-dihydro-7H-purin-7-yl)-N-(4,5,6,7-tetrahydrobenzo[d]thiazol-2-yl)benzamide]
< 100 nM | CN(C)C/C=C/C(=O)N(C)c1cccc(-n2c(=O)n(-c3ccc(C(=O)Nc4nc5ccccc5s4)cc3)c3c(N)ncnc32)c1 [Compound 23, (E)-4-(6-amino-9-(3-(4-(dimethylamino)-N-methylbut-2-enamido)phenyl)-8-oxo-8,9-dihydro-7H-purin-7-yl)-N-(benzo[d]thiazol-2-yl)benzamide]
1000 to 10000 nM | Cc1nnc(NC(=O)c2ccc(-n3c(=O)n(-c4cccc(N(C)C(=O)/C=C/CN(C)C)c4)c4ncnc(N)c43)cc2)s1 [Compound 24, (E)-4-(6-amino-9-(3-(4-(dimethylamino)-N-methylbut-2-enamido)phenyl)-8-oxo-8,9-dihydro-7H-purin-7-yl)-N-(5-methyl-1,3,4-thiadiazol-2-yl)benzamide]
